According to patent publication US9617249B2, “Benzoheterocyclic anti-bacterial agents” (UNIVERSITY OF NOTRE DAME DU LAC, priority 2008, dated 2017):
Values after ≈ are worked out from the molar mass of the structure shown.

How the values were obtained:
Format in all cases: cell-based
[1] = test system: Methicillin-resistant Staphylococcus aureus (MRSA); experiment: MIC against MRSA
Description: (§1) In embodiments, various molecules as described herein have surprising activity against MRSA. […] While this particular molecule has been tested previously, the present application is the first disclosure of this compound having activity against multi-drug resistant “super bug” strains. In addition, in accordance with an embodiment described herein, this compound and analogs thereof may be synthesized in high yields in just a single step. Further embodiments herein provide analogs of the afore-mentioned compounds and methods of making and using such compounds.
(§2) In accordance with an embodiment, in order to first broadly screen these compounds, an agar diffusion assay was employed to determine whether these compounds have any activity against a diverse array of organisms which include MRSA and VRE. […] FIG. 4 illustrates selectivity and potency of various benzimidazoles, benzthiazoles, and benzoxazoles against a panel of microorganisms including gram-positive bacteria, gram-negative bacteria, fungi, yeast, and mycobacteria. The minimum inhibition concentration at 90% is shown in micromolar concentration. […] Therefore many of the compounds had their MICs determined which reflected many of the findings of the diffusion assay. FIG. 5 illustrates the chemical structure, molecular weight, and chemical formula of most of the compounds of FIG. 4.

[2] = test system: Vancomycin-Resistant Enterococcus (VRE); experiment: MIC against VRE
Description: as §1, §2

[3] = test system: Gram-positive clinical isolate strains; experiment: Potency and selectivity against panel of Gram-positive clinical isolate strains; details: Ciprofloxacin standard (FIG. 9)
Description: (§3) FIG. 9 illustrates the potency and selectivity of ND-7901 against a panel of Gram-positive clinical isolate strains compared to a Ciprofloxacin standard in micrograms per milliliter. […] FIG. 10 illustrates the potency and selectivity of ND-7901 against a panel of Gram-negative clinical isolate strains compared to a Ciprofloxacin standard in micrograms per milliliter.

[4] = test system: Gram-negative clinical isolate strains; experiment: Potency and selectivity against panel of Gram-negative clinical isolate strains; details: Ciprofloxacin standard (FIG. 10)
Description: as §3

[5] = test system: Gram-positive strains; experiment: MIC and MBC determinations against Gram-positive strains; details: most Gram-positive isolates (FIG. 11)
Method: FIG. 11 illustrates the minimum inhibitory concentration (MIC) and the minimum bactericidal concentration (MBC) determinations of ND-7901 to various Gram-positive strains. A series of broths were mixed with solutions of diluted drug an inoculum was applied. After incubation, the MIC was determined as the first concentration in which the growth of the organism has been inhibited. In contrast, the MBC was measured by inoculating the series of broths used for the MIC determination onto drug-free medium. The MBC is the first dilution at which growth is not observed. ND-7901 is bactericidal against most Gram-positive isolates.

[6] = test system: methicillin-sensitive S. aureus (MSSA), ATCC 29213; experiment: Time-kill assay; details: MSSA ATCC 29213, drug at various concentrations, Vancomycin as control (FIG. 12)
[7] = test system: S. aureus strains; experiment: Mutational analysis by growth without selection and recovery on drug plates; details: overnight growth with no selection, drug plates at 2-4 times the MIC (FIG. 13)
Description: FIG. 13 illustrates a mutational analysis of […] by growth of S. aureus strains overnight with no selection and recovery of resistant colonies on drug plates at 2-4 times the MIC value.

[8] = test system: S. aureus strains; experiment: Mutational analysis by serial transfer experiments; details: 0.5-2 times the MIC, after 8 passages (FIG. 14)
Method: FIG. 14 illustrates the mutational analysis of ND-7901 by serial transfer experiments. As such, the S. aureus strains were grown with ND-7901 (0.5-2 times the MIC) added and passed serially until resistance was found.

SMILES | MIC [1] | MIC [2] | activity against Gram-positive isolates [3] | activity against Gram-negative isolates [4] | bactericidal character (MBC versus MIC) [5] | kinetics of bacteria death (time-kill) [6] | spontaneous resistant mutants recovered [7] | level of resistance after serial passage [8]
O=[N+]([O-])c1ccc(-c2nc3ccccc3[nH]2)o1 [nitrofuran benzimidazole] | 8 µM (≈ 1.83 µg/mL) | 16 µM (≈ 3.67 µg/mL) |  |  |  |  |  | 
O=[N+]([O-])c1ccc(-c2nc3cccc(O)c3[nH]2)o1 [ND-7901] |  |  | good activity | limited activity | bactericidal | rapid kinetics of bacteria death | no spontaneous mutants were recovered | very low level of resistance
